Measurements from EP4725957A1, “GROUP OF CYCLIC ALKALINE LIPOPEPTIDE COMPOUNDS, AND PREPARATION METHOD THEREFOR AND USE THEREOF” (Institute of Medicinal Biotechnology, Chinese Academy of …, priority 2023, dated 2024).
≈ marks a conversion by molar mass, not a printed value. Bridge positions count the residues as written; N and C are the ends. Square brackets hold non-standard residues; d marks the D form. Peptide text beside a SMILES is read from it. * marks the point of attachment. Heptanoyl(6-Me) = CC(C)CCCCC(=O)*; Sulfomethyl = O=S(=O)(O)C*; dOrn = NCCC[C@@H](N)C(=O)O; Nonanoyl = CCCCCCCCC(=O)*; X1 = CC[C@H](C)CCCCC(=O)*; Heptanoyl = CCCCCCC(=O)*; Octanoyl = CCCCCCCC(=O)*; Orn = NCCC[C@H](N)C(=O)O; Dab = NCC[C@H](N)C(=O)O; Dap = NC[C@H](N)C(=O)O

Tests used:
Format in all cases: cell-based
[1] = test system: Acinetobacter baumannii ABA19-1; conditions: ABA19-1
How it was run: (§1)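 Colonies from 18-24 h plates were suspended to 0.5 McFarland and diluted in MH broth. Two-fold compound dilutions were then mixed 1:1 with inoculum to reach 64 to 0.03 mg/L and (2-4) × 10^5 CFU/mL. Plates were sealed and incubated at 35-37°C for 16-20 h, after which the MIC was read.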

[2] = test system: Acinetobacter baumannii NCTC 13304 (OXA-27); conditions: NCTC 13304
How it was run: as §1

[3] = test system: Escherichia coli ATCC BAA-2340 (KPC); conditions: ATCC BAA-2340
How it was run: as §1

[4] = test system: Escherichia coli ATCC BAA-2523; conditions: ATCC BAA-2523
How it was run: as §1

[5] = test system: Klebsiella pneumoniae ATCC BAA-1705 (KPC); conditions: ATCC BAA-1705
How it was run: as §1

[6] = test system: Klebsiella pneumoniae KPN+19-15; conditions: KPN+19-15
How it was run: as §1

[7] = test system: Pseudomonas aeruginosa ATCC 27853; conditions: ATCC 27853
How it was run: as §1

[8] = test system: Pseudomonas aeruginosa PAE19-3; conditions: PAE19-3
How it was run: as §1

[9] = Nephrotoxicity assay: in vitro cytotoxicity of HK-2 cells by CCK-8 assay; conditions: human, HK-2 cells (human renal), 72 h incubation with drug-containing medium
How it was run: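 HK-2 human renal cells in RPMI-1640 with 10% FBS were exposed to compounds at final 12.5–500 µg/mL for 72 h, then CCK-8 for 3 h and OD450 read. Viability was normalised to drug-free wells; IC50 came from logarithmic regression over three repeats, with polymyxin B as positive drug.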

SMILES | MIC [1] | MIC [2] | MIC [3] | MIC [4] | MIC [5] | MIC [6] | MIC [7] | MIC [8] | IC50 at 72 h [9]
CCCCCCCC(=O)N[C@@H](CCN)C(=O)N[C@H](C(=O)N[C@H](CCCN)C(=O)N[C@H]1CCNC(=O)[C@H]([C@@H](C)O)NC(=O)[C@H](CCN)NC(=O)[C@H](CCN)NC(=O)[C@H](CC(C)C)NC(=O)[C@@H](Cc2ccccc2)NC(=O)[C@H](CCN)NC1=O)[C@@H](C)O [Compound 43, Octanoyl-Dab-Thr-D-Orn-ring(4-10)[Dab-Dab-D-Phe-Leu-Dab-Dab-Thr]] (Octanoyl-[Dab]T[dOrn][Dab][Dab][dF]L[Dab][Dab]T; lactam 4-C) | 0.125 µg/mL (≈ 0.104 µM) | 0.06 µg/mL (≈ 0.0499 µM) | 0.03 µg/mL (≈ 0.0249 µM) | 0.03 µg/mL (≈ 0.0249 µM) | 0.06 µg/mL (≈ 0.0499 µM) | 0.125 µg/mL (≈ 0.104 µM) | 0.25 µg/mL (≈ 0.208 µM) | 1 µg/mL (≈ 0.831 µM) | 328 ± 8.6 µg/mL (≈ 273 µM)
CCCCCCC(=O)N[C@@H](CN)C(=O)N[C@H](C(=O)N[C@H](CO)C(=O)N[C@H]1CCNC(=O)[C@H]([C@@H](C)O)NC(=O)[C@H](CCN)NC(=O)[C@H](CCN)NC(=O)[C@H]([C@@H](C)O)NC(=O)[C@@H](Cc2ccccc2)NC(=O)[C@H](CCN)NC1=O)[C@@H](C)O [Compound 54, Heptanoyl-Dap-Thr-D-Ser-ring(4-10)[Dab-Dab-D-Phe-Thr-Dab-Dab-Thr]] (Heptanoyl-[Dap]T[dS][Dab][Dab][dF]T[Dab][Dab]T; lactam 4-C) | 0.25 µg/mL (≈ 0.22 µM) | 0.25 µg/mL (≈ 0.22 µM) | 0.03 µg/mL (≈ 0.0264 µM) | 0.03 µg/mL (≈ 0.0264 µM) | 0.25 µg/mL (≈ 0.22 µM) | 0.5 µg/mL (≈ 0.44 µM) | 64 µg/mL (≈ 56.3 µM) | 8 µg/mL (≈ 7.04 µM) | > 500 µg/mL
CCCCCCCCC(=O)N[C@@H](CCN)C(=O)N[C@H](C(=O)N[C@H](CO)C(=O)N[C@H]1CCNC(=O)[C@H]([C@@H](C)O)NC(=O)[C@H](CCN)NC(=O)[C@H](CN)NC(=O)[C@H]([C@@H](C)O)NC(=O)[C@@H](Cc2ccccc2)NC(=O)[C@H](CCN)NC1=O)[C@@H](C)O [Compound 75, Nonanoyl-Dab-Thr-D-Ser-ring(4-10)[Dab-Dab-D-Phe-Thr-Dap-Dab-Thr]] (Nonanoyl-[Dab]T[dS][Dab][Dab][dF]T[Dap][Dab]T; lactam 4-C) | 0.06 µg/mL (≈ 0.0515 µM) | 0.03 µg/mL (≈ 0.0258 µM) | 0.06 µg/mL (≈ 0.0515 µM) | 0.06 µg/mL (≈ 0.0515 µM) | 0.25 µg/mL (≈ 0.215 µM) | 0.5 µg/mL (≈ 0.429 µM) | >64 µg/mL | 64 µg/mL (≈ 55 µM) | 310 ± 19.8 µg/mL (≈ 266 µM)
CC[C@H](C)CCCCC(=O)N[C@@H](CCN)C(=O)N[C@H](C(=O)N[C@H](CO)C(=O)N[C@H]1CCNC(=O)[C@H]([C@@H](C)O)NC(=O)[C@H](CCN)NC(=O)[C@H](CCN)NC(=O)[C@H]([C@@H](C)O)NC(=O)[C@@H](Cc2ccccc2)NC(=O)[C@H](CCCN)NC1=O)[C@@H](C)O [Compound 66, (S)-6-methyloctanoyl-Dab-Thr-D-Ser-ring(4-10)[Dab-Orn-D-Phe-Thr-Dab-Dab-Thr]] (X1-[Dab]T[dS][Dab][Orn][dF]T[Dab][Dab]T; lactam 4-C) | 0.25 µg/mL (≈ 0.21 µM) | 0.25 µg/mL (≈ 0.21 µM) | 0.125 µg/mL (≈ 0.105 µM) | 0.125 µg/mL (≈ 0.105 µM) | 0.25 µg/mL (≈ 0.21 µM) | 0.5 µg/mL (≈ 0.419 µM) | 64 µg/mL (≈ 53.7 µM) | 4 µg/mL (≈ 3.35 µM) | > 500 µg/mL
CC(C)CCCCC(=O)N[C@@H](CCN)C(=O)N[C@H](C(=O)N[C@H](CO)C(=O)N[C@H]1CCNC(=O)[C@H]([C@@H](C)O)NC(=O)[C@H](CCN)NC(=O)[C@H](CCN)NC(=O)[C@H]([C@@H](C)O)NC(=O)[C@@H](Cc2ccccc2)NC(=O)[C@H](CCN)NC1=O)[C@@H](C)OCS(=O)(=O)O [Compound 104, 6-methylheptanoyl-Dab-Thr(CH2SO3H)-D-Ser-ring(4-10)[Dab-Dab-D-Phe-Thr-Dab-Dab-Thr]] ({Heptanoyl(6-Me)}-[Dab]T(Sulfomethyl)[dS][Dab][Dab][dF]T[Dab][Dab]T; lactam 4-C) | 0.06 µg/mL (≈ 0.0477 µM) | 0.06 µg/mL (≈ 0.0477 µM) | 0.03 µg/mL (≈ 0.0238 µM) | 0.03 µg/mL (≈ 0.0238 µM) | 0.125 µg/mL (≈ 0.0993 µM) | 0.125 µg/mL (≈ 0.0993 µM) | 0.25 µg/mL (≈ 0.199 µM) | 0.25 µg/mL (≈ 0.199 µM) | > 500 µg/mL
CCCCCCCC(=O)N[C@@H](CCN)C(=O)N[C@H](C(=O)N[C@H](CO)C(=O)N[C@H]1CCNC(=O)[C@H]([C@@H](C)O)NC(=O)[C@H](CCN)NC(=O)[C@H](CCCN)NC(=O)[C@H]([C@@H](C)O)NC(=O)[C@@H](Cc2ccccc2)NC(=O)[C@H](CCN)NC1=O)[C@@H](C)O [Compound 78, Octanoyl-Dab-Thr-D-Ser-ring(4-10)[Dab-Dab-D-Phe-Thr-Orn-Dab-Thr]] (Octanoyl-[Dab]T[dS][Dab][Dab][dF]T[Orn][Dab]T; lactam 4-C) | 0.06 µg/mL (≈ 0.0509 µM) | ≤0.03 µg/mL | ≤0.03 µg/mL | ≤0.03 µg/mL | 0.25 µg/mL (≈ 0.212 µM) | 0.5 µg/mL (≈ 0.424 µM) | >64 µg/mL | 64 µg/mL (≈ 54.3 µM) | > 500 µg/mL
